For seven compounds, IC50 and CC50 results are on record in ChEMBL document CHEMBL1201862, “PubChem BioAssay data set” (2004).

Calls of active or inactive are those of the source.

Common to all, as to assay type: functional
The target in experiment [1] is T1, Orexin/Hypocretin receptor type 1 (Homo sapiens, UniProt O43613).
T1 sequence (O43613 whole entry): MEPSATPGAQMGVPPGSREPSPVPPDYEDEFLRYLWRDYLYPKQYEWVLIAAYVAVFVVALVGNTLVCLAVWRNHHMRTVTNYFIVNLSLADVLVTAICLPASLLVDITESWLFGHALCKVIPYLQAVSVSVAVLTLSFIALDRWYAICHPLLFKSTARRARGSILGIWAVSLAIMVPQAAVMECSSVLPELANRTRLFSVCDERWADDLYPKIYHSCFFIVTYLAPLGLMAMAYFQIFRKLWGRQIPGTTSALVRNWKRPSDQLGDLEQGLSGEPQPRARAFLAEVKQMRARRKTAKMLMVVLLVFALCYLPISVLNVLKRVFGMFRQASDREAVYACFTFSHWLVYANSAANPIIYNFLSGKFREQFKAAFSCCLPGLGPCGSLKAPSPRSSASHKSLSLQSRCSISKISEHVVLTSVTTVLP
The experiment is described as follows: Homogeneous Time Resolved Fluorescence (HTRF)-based cell-based high throughput dose response assay for antagonists of the orexin 1 receptor (OX1R; HCRTR1). [Related pubchem assays (depositor defined):AID434989, AID435008, AID463079, AID485270, AID492963, AID492964, AID492965, AID493232, AID504717, AID504718].

Experiment [2] has as its target T2, Orexin receptor type 2 (Homo sapiens, UniProt O43614).
T2 sequence (O43614 whole entry): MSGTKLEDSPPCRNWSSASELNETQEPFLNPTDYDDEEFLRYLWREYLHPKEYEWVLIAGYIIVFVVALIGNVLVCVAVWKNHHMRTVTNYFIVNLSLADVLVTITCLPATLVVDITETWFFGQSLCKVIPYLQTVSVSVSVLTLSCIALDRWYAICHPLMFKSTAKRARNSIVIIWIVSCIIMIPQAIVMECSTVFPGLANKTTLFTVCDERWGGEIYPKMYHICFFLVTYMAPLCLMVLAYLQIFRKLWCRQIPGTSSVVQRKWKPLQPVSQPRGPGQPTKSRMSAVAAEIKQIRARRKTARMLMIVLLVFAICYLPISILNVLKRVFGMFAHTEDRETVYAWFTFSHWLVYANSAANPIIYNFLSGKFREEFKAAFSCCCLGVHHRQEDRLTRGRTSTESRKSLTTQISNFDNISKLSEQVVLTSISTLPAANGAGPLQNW
The experiment is described as follows: Counterscreen assay for antagonists of the orexin 1 receptor (OX1R; HCRTR1): Homogeneous Time Resolved Fluorescence (HTRF)-based cell-based dose response assay for antagonists of the orexin 2 receptor (OX2R; HCRTR2), run by assay provider.

Another experiment concerns CHO-K1. Nature of the experiment: Counterscreen for antagonists of the orexin 1 receptor (OX1R; HCRTR1): Homogeneous time resolved fluorescence (HTRF)-based cell-based dose response assay to identify antagonists of the parental CHO-K1 cell line. [Related pubchem assays (depositor defined):AID434989, AID435008, AID463079, AID485270, AID492963, AID492964, AID492965, AID493232, AID504699, AID504701]. The settings on record: Cricetulus griseus.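 Also: potency for inhibition of ATP-stimulated IP1 production as antagonists.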

A short description of experiment [3]: Counterscreen for antagonists of the orexin 1 receptor (OX1R; HCRTR1): Fluorescence-based cell-based high throughput dose response assay to identify antagonists of the parental CHO cell line. [Related pubchem assays (depositor defined):AID434989, AID435008, AID463079, AID485270, AID492963, AID492964, AID492965, AID493232, AID504699, AID504701].
Experiment [4] has as its target T1, Orexin/Hypocretin receptor type 1. Nature of the experiment: Fluorescence-based cell-based high throughput dose response assay for antagonists of the orexin 1 receptor (OX1R; HCRTR1). [Related pubchem assays (depositor defined):AID434989, AID435008, AID463079, AID485270, AID492963, AID492964, AID492965, AID493232, AID504717, AID504718].
In experiment [5] the target is T2, Orexin receptor type 2. The experiment is described as follows: Counterscreen assay for antagonists of the orexin 1 receptor (OX1R; HCRTR1): Fluorescence-based cell-based dose response assay for antagonists of the orexin 2 receptor (OX2R; HCRTR2), run by assay provider. (In general: A counterscreen serves to expose hits that act by an unwanted route or on another target.)

The target of experiment [6] is T3, Sentrin-specific protease 6 (Homo sapiens, UniProt Q9GZR1).
T3 sequence (Q9GZR1 whole entry): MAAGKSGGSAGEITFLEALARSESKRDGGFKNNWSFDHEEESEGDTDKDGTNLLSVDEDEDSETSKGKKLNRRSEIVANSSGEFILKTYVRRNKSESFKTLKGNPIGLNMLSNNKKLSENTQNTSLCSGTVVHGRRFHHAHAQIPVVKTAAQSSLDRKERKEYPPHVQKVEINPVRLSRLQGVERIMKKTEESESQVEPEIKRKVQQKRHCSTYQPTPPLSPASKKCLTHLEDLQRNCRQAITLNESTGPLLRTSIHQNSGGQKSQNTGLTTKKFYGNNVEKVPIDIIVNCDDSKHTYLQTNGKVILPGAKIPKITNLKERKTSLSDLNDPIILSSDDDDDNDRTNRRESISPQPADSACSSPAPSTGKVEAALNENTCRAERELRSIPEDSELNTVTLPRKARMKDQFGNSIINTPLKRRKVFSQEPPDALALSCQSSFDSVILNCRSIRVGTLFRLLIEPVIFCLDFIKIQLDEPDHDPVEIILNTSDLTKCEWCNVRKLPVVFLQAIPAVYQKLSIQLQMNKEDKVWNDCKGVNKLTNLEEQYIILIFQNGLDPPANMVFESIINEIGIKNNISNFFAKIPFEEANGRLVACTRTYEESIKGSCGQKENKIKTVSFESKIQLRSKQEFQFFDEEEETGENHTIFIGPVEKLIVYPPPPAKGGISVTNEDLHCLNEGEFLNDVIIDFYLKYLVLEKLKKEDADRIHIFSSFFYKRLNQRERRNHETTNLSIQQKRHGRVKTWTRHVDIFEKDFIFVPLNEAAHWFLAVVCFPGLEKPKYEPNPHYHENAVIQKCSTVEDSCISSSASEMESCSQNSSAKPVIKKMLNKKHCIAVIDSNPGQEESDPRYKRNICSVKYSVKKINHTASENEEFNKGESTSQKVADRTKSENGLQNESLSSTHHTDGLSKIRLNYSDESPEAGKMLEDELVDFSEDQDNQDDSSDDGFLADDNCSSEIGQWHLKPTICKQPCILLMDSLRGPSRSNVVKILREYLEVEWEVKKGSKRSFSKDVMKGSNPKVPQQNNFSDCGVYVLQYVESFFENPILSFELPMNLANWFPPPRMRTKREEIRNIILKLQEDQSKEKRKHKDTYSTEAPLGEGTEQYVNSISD
Nature of the experiment: SAR Analysis of small molecule inhibitors of Sentrin-specific protease 6 (SENP6) using a Luminescent assay. [Related pubchem assays (depositor defined):AID2582, AID2599].

Experiment [7] addresses T4, Sentrin-specific protease 8 (Homo sapiens, UniProt Q96LD8).
T4 sequence (Q96LD8 whole entry): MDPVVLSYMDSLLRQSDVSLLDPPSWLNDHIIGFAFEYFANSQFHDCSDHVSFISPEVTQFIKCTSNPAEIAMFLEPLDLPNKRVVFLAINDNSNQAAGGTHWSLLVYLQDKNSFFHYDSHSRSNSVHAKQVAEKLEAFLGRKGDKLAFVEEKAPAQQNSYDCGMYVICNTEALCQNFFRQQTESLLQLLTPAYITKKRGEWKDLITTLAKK
Nature of the experiment: inhibition of human SENP8 cleavage activity – biochemical, luminescence, SAR follow-up (AID 504501).

Experiment [8] concerns the target T5, Sentrin-specific protease 7 (Homo sapiens, UniProt Q9BQF6).
T5 sequence (Q9BQF6 whole entry): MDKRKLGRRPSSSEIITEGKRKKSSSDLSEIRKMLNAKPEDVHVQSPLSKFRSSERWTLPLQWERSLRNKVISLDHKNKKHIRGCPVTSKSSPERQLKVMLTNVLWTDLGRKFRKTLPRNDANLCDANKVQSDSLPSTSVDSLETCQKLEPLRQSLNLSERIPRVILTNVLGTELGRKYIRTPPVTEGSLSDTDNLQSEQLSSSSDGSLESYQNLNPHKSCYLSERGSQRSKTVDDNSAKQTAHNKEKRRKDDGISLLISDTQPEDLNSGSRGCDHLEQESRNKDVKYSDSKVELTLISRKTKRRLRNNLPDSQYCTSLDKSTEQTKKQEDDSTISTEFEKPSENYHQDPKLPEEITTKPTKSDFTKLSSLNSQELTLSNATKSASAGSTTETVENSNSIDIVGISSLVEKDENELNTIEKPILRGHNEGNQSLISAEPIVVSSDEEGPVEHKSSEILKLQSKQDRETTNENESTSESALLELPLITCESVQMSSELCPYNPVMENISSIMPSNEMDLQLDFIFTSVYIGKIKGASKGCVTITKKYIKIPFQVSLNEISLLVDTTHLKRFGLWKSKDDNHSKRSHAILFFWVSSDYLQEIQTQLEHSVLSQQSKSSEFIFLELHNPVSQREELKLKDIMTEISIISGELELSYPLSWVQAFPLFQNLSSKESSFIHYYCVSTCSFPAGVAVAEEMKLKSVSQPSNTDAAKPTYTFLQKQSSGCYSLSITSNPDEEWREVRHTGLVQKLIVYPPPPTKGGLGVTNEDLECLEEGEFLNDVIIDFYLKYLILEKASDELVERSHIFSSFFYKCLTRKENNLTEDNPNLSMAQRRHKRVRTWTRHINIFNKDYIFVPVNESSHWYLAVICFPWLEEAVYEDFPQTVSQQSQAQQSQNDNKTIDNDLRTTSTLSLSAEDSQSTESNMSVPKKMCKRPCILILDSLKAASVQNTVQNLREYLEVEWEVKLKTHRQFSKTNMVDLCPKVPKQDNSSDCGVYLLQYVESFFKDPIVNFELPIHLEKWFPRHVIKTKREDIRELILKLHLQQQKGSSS
The experiment is described as follows: inhibition of human SENP7 cleavage activity – biochemical, luminescence, SAR follow-up (AID 504497).

The next experiment concerns the target T6, Caspase-3 (Homo sapiens, UniProt P42574).
T6 sequence (P42574 whole entry): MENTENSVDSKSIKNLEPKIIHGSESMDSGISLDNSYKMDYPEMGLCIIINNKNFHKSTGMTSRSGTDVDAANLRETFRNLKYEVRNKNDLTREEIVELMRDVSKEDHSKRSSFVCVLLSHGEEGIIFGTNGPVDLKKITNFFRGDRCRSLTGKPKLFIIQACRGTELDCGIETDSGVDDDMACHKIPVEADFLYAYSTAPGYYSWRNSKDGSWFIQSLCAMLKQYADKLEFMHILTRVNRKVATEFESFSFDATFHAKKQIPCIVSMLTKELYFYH
The experiment is described as follows: SAR Analysis of small molecule inhibitors of Sentrin-specific proteases (SENPs) using a Caspase-3 Selectivity assay. [Related pubchem assays (depositor defined):AID2540, AID2599, AID434973, AID489001].

A short description of experiment [9]: A Cell Based Secondary Assay To Explore Cytotoxicity of Compounds that Sensitize Mycobacterium Tuberculosis to Beta-Lactam Antibiotics.

For the compound `CCOc1ccccc1C(=O)NCCNC(=O)c1ccccc1OCC`, the IC50 was 4.15 µM (active) in [1]; 2.78 µM (active) on Orexin receptor type 2 [2]; > 66.2 µM (inactive) in the experiment with CHO-K1; > 49.8 µM (inactive) in experiment [3]; 3.27 µM (active) in experiment [4]; > 88.8 µM (inactive) on Orexin receptor type 2 [5].

As for `Brc1ccc(-c2nc(/C=C/c3ccccc3)no2)cc1`, the IC50 (in [6]; in experiment [7]; in [8]; on Caspase-3) was > 99 µM (inactive) each time.

For `NC(=O)c1ccc(NC(=O)c2ccc3c(c2)OCO3)cc1`, the IC50 is > 99 µM (inactive) in [6], > 99 µM (inactive) in [7], 12.9 µM (active) in [8] and 7.08 µM (active) on Caspase-3.

Consider `C=CCn1c(SCc2ccc(C(=O)Nc3nccs3)cc2)nnc1-c1ccc(C)c(Cl)c1`, for which the IC50 in experiment [1] was 0.919 µM (active); on Orexin receptor type 2 [2], > 50 µM (inactive); with CHO-K1 it was > 66.2 µM (inactive); in experiment [3], 18.3 µM (inactive); in experiment [4] it was 4.95 µM (active); at Orexin receptor type 2 [5], 18 µM (inactive). Also, the CC50 in [9] is 33 µM (active).

In the case of `c1ccc(CN2CCN(C3CCCSc4ccccc43)CC2)cc1` (configuration not stated), the IC50 in experiment [1] is 1.59 µM (active); at Orexin receptor type 2 [2], > 50 µM (inactive); in the experiment on CHO-K1 it was > 66.2 µM (inactive); in [3], > 49.8 µM (inactive); in experiment [4] it was 23.9 µM (inactive); at Orexin receptor type 2 [5], > 88.8 µM (inactive).

Regarding `COc1ccc(OC)c(S(=O)(=O)NCC(c2ccco2)N2CCc3ccccc32)c1` (configuration not stated), the IC50 in [1] is 2.3 µM (active); at Orexin receptor type 2 [2], > 50 µM (inactive); with CHO-K1, > 66.2 µM (inactive); in experiment [3] it was > 49.8 µM (inactive); in [4], 2 µM (active); at Orexin receptor type 2 [5], 10.5 µM (inactive).

With `COC(=O)c1ccccc1NC1=C/C(=N/S(=O)(=O)c2cccs2)c2ccccc2C1=O`, the IC50 in [6] was 2.15 µM (active); in experiment [7] it was 4.02 µM (active); in experiment [8] it was 2.42 µM (active); at Caspase-3, 24.5 µM (active).

A word on the IC50: it is the midpoint of a concentration-inhibition curve. Usually CC50 stands for the concentration at which the toxic effect on the cells reaches its halfway point.
